In PubChem BioAssay (NCI) one finds TGI and GI50 data, which are given here for 13 compounds.

The structures appear in SMILES notation.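 Dose response: 5 concentrations. Exposure: 48 h. Format: 96-well plates. Endpoint: linear interpolation; highest concentration if not reached. At the GI50, growth is halved. TGI: total growth inhibition.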

Among the test systems are U251 CNS; EKVX NSCLC; IGROV1 ovarian; NCI-H226 lung; MOLT-4 leukemia; MDA-MB-435; TK-10 renal; SF-295 CNS; PC-3 prostate; CCRF-CEM leukemia.
Experiment in all cases: growth of human tumour cells (NCI), 48 h

`COc1cccc(C2c3cc4c(cc3OC(N3CCCC3)C2C)OCO4)c1O` (stereo not given): the TGI in the test with U251 CNS was 25.8 µM; in the test on EKVX NSCLC, greater than 84.9 µM; in the test on IGROV1 ovarian it was 99.1 µM; in the test on NCI-H226 lung it was 35.6 µM; in the test on MOLT-4 leukemia it was 93 µM; in the test on MDA-MB-435, 4.61 µM. For the same compound, the TGI in the test on TK-10 renal was 40.1 µM; in the test on SF-295 CNS it was 15.4 µM; in the test with PC-3 prostate, 73.5 µM; with CCRF-CEM leukemia, greater than 100 µM.
For `COc1cc(Nc2nc3ccccc3cc2C(=O)Nc2ccc(F)c(F)c2)cc(OC)c1OC`, the GI50 is 3.36 µM with U251 CNS; 2.87 µM with EKVX NSCLC; 4.08 µM in the test on IGROV1 ovarian; 2.55 µM in the test on NCI-H226 lung; 2.04 µM with MOLT-4 leukemia; 2.19 µM in the test with MDA-MB-435. The GI50 with TK-10 renal was 4.52 µM; with SF-295 CNS, 2.85 µM; with PC-3 prostate, 2.21 µM; in the test with CCRF-CEM leukemia, 3.12 µM. Moreover, the TGI in the test with U251 CNS is greater than 100 µM; in the test with EKVX NSCLC it was greater than 100 µM; in the test on IGROV1 ovarian, greater than 100 µM; in the test on NCI-H226 lung, 7.93 µM; in the test on MOLT-4 leukemia, 6.15 µM; in the test with MDA-MB-435, 5.17 µM. In addition, the TGI is greater than 100 µM in the test on TK-10 renal, 10.2 µM with SF-295 CNS, 7.9 µM in the test with PC-3 prostate and greater than 100 µM in the test with CCRF-CEM leukemia.
For the compound `NC(=O)c1cccc(Nc2nccc(Nc3cccc4[nH]ncc34)n2)c1`, the GI50 is 9.53 µM with U251 CNS; greater than 25 µM in the test with EKVX NSCLC; 10.5 µM in the test with IGROV1 ovarian; 5.52 µM in the test on NCI-H226 lung; 12.8 µM in the test on MOLT-4 leukemia; 8.58 µM with MDA-MB-435. Also, the GI50 in the test with TK-10 renal was 20.5 µM; in the test on SF-295 CNS, 15.4 µM; in the test with PC-3 prostate it was 8.73 µM; in the test on CCRF-CEM leukemia it was 9.14 µM. The TGI in the test on U251 CNS was greater than 25 µM; with EKVX NSCLC it was greater than 25 µM; with IGROV1 ovarian, greater than 25 µM; in the test with NCI-H226 lung it was greater than 20.1 µM; in the test on MOLT-4 leukemia it was greater than 25 µM; in the test on MDA-MB-435 it was greater than 25 µM. Also, the TGI in the test on TK-10 renal, in the test with SF-295 CNS, in the test on PC-3 prostate and in the test on CCRF-CEM leukemia was greater than 25 µM each time.
`COC(=O)Cc1ccc(Oc2cnc3cc(F)c(F)cc3n2)cc1`: the GI50 was greater than 100 µM in the test on U251 CNS; 94.3 µM in the test on EKVX NSCLC; greater than 100 µM with IGROV1 ovarian; 52.9 µM in the test with NCI-H226 lung; 12.7 µM with MOLT-4 leukemia; greater than 100 µM in the test with MDA-MB-435. Besides, the GI50 in the test on TK-10 renal is greater than 100 µM; in the test with SF-295 CNS, greater than 100 µM; with PC-3 prostate it was 63.7 µM; in the test with CCRF-CEM leukemia, 44.2 µM. Also, the TGI in the test with U251 CNS is greater than 100 µM; in the test on EKVX NSCLC, greater than 100 µM; with IGROV1 ovarian it was greater than 100 µM; in the test on NCI-H226 lung, greater than 100 µM; in the test with MOLT-4 leukemia, 32.9 µM; in the test with MDA-MB-435, greater than 100 µM. The TGI in the test on TK-10 renal, in the test on SF-295 CNS, in the test with PC-3 prostate and in the test with CCRF-CEM leukemia was greater than 100 µM throughout.
Turning to `CNC(=O)Cc1nc(-c2cccc(NS(=O)(=O)c3c(F)cccc3F)c2F)c(-c2ccnc(Nc3ccccc3)n2)s1`, the GI50 with U251 CNS is 22.7 µM; in the test with EKVX NSCLC, 22.4 µM; with IGROV1 ovarian it was 0.462 µM; in the test on NCI-H226 lung, 8.73 µM; in the test with MOLT-4 leukemia, 12.5 µM; in the test with MDA-MB-435 it was 0.0445 µM. Further, the GI50 in the test with TK-10 renal is 3.02 µM; in the test with SF-295 CNS, 20.5 µM; in the test with PC-3 prostate, 20.9 µM; with CCRF-CEM leukemia it was 11.3 µM. Moreover, the TGI in the test with U251 CNS is greater than 50 µM; in the test on EKVX NSCLC, greater than 50 µM; with IGROV1 ovarian, greater than 19.6 µM; with NCI-H226 lung it was greater than 50 µM; in the test with MOLT-4 leukemia, greater than 50 µM; in the test on MDA-MB-435, greater than 44 µM. Moreover, the TGI was greater than 40.7 µM in the test with TK-10 renal, greater than 50 µM in the test on SF-295 CNS, greater than 50 µM in the test on PC-3 prostate and greater than 50 µM in the test with CCRF-CEM leukemia.
As for `Cc1ccc(C)c(C2NC(=O)c3ccccc3N2)c1` (stereo not given), the TGI in the test with U251 CNS is 17.9 µM; in the test with EKVX NSCLC, greater than 100 µM; in the test on IGROV1 ovarian, greater than 100 µM; in the test with NCI-H226 lung, 20.5 µM; in the test with MOLT-4 leukemia, 31.9 µM; in the test on MDA-MB-435 it was 0.832 µM. Besides, the TGI was greater than 100 µM in the test on TK-10 renal, greater than 33.1 µM in the test with SF-295 CNS, 28.3 µM with PC-3 prostate and greater than 25.5 µM in the test on CCRF-CEM leukemia.
In the case of `Cc1cn2c(/C=N/N=C(N)N)c(-c3cccs3)nc2s1`, the GI50 in the test on U251 CNS was 1.77 µM; in the test with EKVX NSCLC, 8.8 µM; in the test with IGROV1 ovarian, 10.5 µM; with NCI-H226 lung it was 4.18 µM; in the test on MOLT-4 leukemia, 2.37 µM; in the test on MDA-MB-435, 4.96 µM. Further, the GI50 in the test with TK-10 renal is 12.9 µM; in the test with SF-295 CNS it was 3.28 µM; in the test on PC-3 prostate it was 2.99 µM; with CCRF-CEM leukemia, 1.34 µM. Moreover, the TGI in the test on U251 CNS was found to be 3.86 µM; in the test on EKVX NSCLC, 21.1 µM; in the test on IGROV1 ovarian, 27.1 µM; in the test with NCI-H226 lung it was 18.9 µM; in the test with MOLT-4 leukemia, 4.65 µM; in the test with MDA-MB-435, 18.5 µM. Moreover, the TGI with TK-10 renal was 26 µM; in the test with SF-295 CNS, 14.4 µM; in the test with PC-3 prostate, 12.4 µM; with CCRF-CEM leukemia, 3.24 µM.
As for `Cc1cc(C)c(NC(=S)NC(=O)c2ccccc2)cc1C`, the TGI in the test on U251 CNS, in the test with EKVX NSCLC, in the test with IGROV1 ovarian, in the test with NCI-H226 lung, in the test on MOLT-4 leukemia and in the test on MDA-MB-435 was greater than 100 µM each time. In addition, the TGI with TK-10 renal, in the test with SF-295 CNS, in the test on PC-3 prostate and in the test on CCRF-CEM leukemia was greater than 100 µM each time.
Turning to `CC1(CCC(=O)OC2CCCCC2)OCCO1`, the TGI in the test on U251 CNS, in the test with EKVX NSCLC, in the test on IGROV1 ovarian, in the test on NCI-H226 lung, with MOLT-4 leukemia and with MDA-MB-435 was greater than 100 µM throughout. The TGI in the test with TK-10 renal, in the test with SF-295 CNS, in the test with PC-3 prostate and with CCRF-CEM leukemia was greater than 100 µM each time.
Turning to `O=C1C=CC(=O)c2cc(Sc3ccccc3)c(=O)ccc21`, the TGI with U251 CNS is 38.5 µM; with EKVX NSCLC, 33.2 µM; with IGROV1 ovarian it was 35 µM; in the test with NCI-H226 lung, 42.9 µM; in the test on MOLT-4 leukemia, 16 µM; in the test with MDA-MB-435 it was 71 µM. In addition, the TGI turned out to be 32.2 µM in the test on TK-10 renal, 27.6 µM in the test with SF-295 CNS, 33.2 µM in the test on PC-3 prostate and 9.43 µM in the test on CCRF-CEM leukemia.
`COc1ccc(C(=O)c2cc3c(N)c(C(=O)Nc4ccc(C)cc4)sc3nc2C)cc1`: the GI50 with U251 CNS is 3.6 µM; with EKVX NSCLC, 5.59 µM; with IGROV1 ovarian, 6.25 µM; with NCI-H226 lung, 4.22 µM; in the test with MOLT-4 leukemia it was 3.92 µM; in the test on MDA-MB-435, 0.275 µM. In addition, the GI50 is 6.81 µM with TK-10 renal, 2.51 µM with SF-295 CNS, 4.2 µM in the test on PC-3 prostate and 3.76 µM in the test with CCRF-CEM leukemia. Moreover, the TGI in the test on U251 CNS is 28.8 µM; with EKVX NSCLC it was greater than 100 µM; in the test on IGROV1 ovarian, 38.2 µM; with NCI-H226 lung it was 30.8 µM; in the test with MOLT-4 leukemia, greater than 100 µM; in the test on MDA-MB-435, 1.35 µM. Moreover, the TGI with TK-10 renal was 25.2 µM; in the test on SF-295 CNS, 15 µM; in the test on PC-3 prostate, greater than 100 µM; with CCRF-CEM leukemia it was greater than 100 µM.
Regarding `N#CC1=C(N)NC(N2CCOCC2)=NC12Nc1ccccc1N2`, the GI50 was 52.6 µM in the test on U251 CNS; greater than 100 µM in the test with EKVX NSCLC; 2.15 µM in the test on IGROV1 ovarian; 27.3 µM in the test with NCI-H226 lung; 62.5 µM in the test with MOLT-4 leukemia; 31 µM in the test on MDA-MB-435. Further, the GI50 is 10.7 µM with TK-10 renal, 32.6 µM with SF-295 CNS, 46.1 µM in the test on PC-3 prostate and greater than 100 µM in the test on CCRF-CEM leukemia. In addition, the TGI in the test on U251 CNS is greater than 100 µM; in the test on EKVX NSCLC, greater than 100 µM; in the test on IGROV1 ovarian, 23.8 µM; in the test with NCI-H226 lung, greater than 100 µM; with MOLT-4 leukemia, greater than 100 µM; in the test on MDA-MB-435 it was greater than 100 µM. The TGI in the test on TK-10 renal was 46.6 µM; in the test with SF-295 CNS, greater than 100 µM; with PC-3 prostate, greater than 100 µM; in the test with CCRF-CEM leukemia, greater than 100 µM.
As for `CC(C)(C)[Si](C)(C)OC1[C@@H](O[Si](C)(C)C(C)(C)C)[C@@H](CNC(=O)NC(=O)CCl)O[C@H]1n1cnc2c(NC(=O)Nc3ccccc3)ncnc21` (stereo not given in full), the GI50 in the test on U251 CNS is 0.51 µM; in the test on EKVX NSCLC, 1.01 µM; in the test with IGROV1 ovarian, 0.111 µM; in the test on NCI-H226 lung, 0.651 µM; with MOLT-4 leukemia, 0.339 µM; in the test with MDA-MB-435 it was 0.835 µM. The GI50 in the test with TK-10 renal is 0.978 µM; in the test with SF-295 CNS it was 0.235 µM; in the test with PC-3 prostate it was 0.381 µM; in the test with CCRF-CEM leukemia it was 0.0441 µM. The TGI with U251 CNS came out at 1.21 µM; in the test with EKVX NSCLC, 2.98 µM; in the test on IGROV1 ovarian, 0.233 µM; in the test on NCI-H226 lung, 1.3 µM; in the test with MOLT-4 leukemia, 0.913 µM; in the test on MDA-MB-435, 1.75 µM. The TGI with TK-10 renal was 1.88 µM; in the test with SF-295 CNS it was 0.922 µM; with PC-3 prostate, 1.19 µM; with CCRF-CEM leukemia it was 0.125 µM.
